Laboratory results reported in patent US11970474B2, “Substituted benzodiazoles and use thereof in therapy” (THOMAS HELLEDAYS STIFTELSE FÖR MEDICINSK FORSKNING, priority 2018, dated 2024).
Like-named read-outs stand apart in the source and are kept apart here.

Assays:
OGG1 = OGG1 (Homo sapiens (Human), UniProt O15527); assay: In vitro OGG1 activity assay; type: biochemical; details: 800 pM OGG1 enzyme, 2 nM human APEX1, 10 nM 8-oxoA:C substrate
Procedure, shortened: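 Read-out is fluorescein fluorescence, with compounds in DMSO added first, then enzyme and substrate. OGG1 excises its substrate base from a quenched fluorophore-labelled duplex, and surplus APEX1 cuts the resulting apurinic site. The duplex then melts and fluorescence rises in proportion to glycosylase activity.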

MLE12 cells = assay: Cell viability assay in MLE12 cells (resazurin); type: cell-based, mouse; details: TNF-α 20 ng/ml, resazurin added after 24 hours culture
Description: (§1) Stock solutions (10 mM in DMSO) of compounds were dispensed in V-bottom 384-well plates and the following dilutions were prepared: 10 mM and 0.05 mM. The dilutions were transferred to the source plate. Duplicate 6 points dose-response curves of compounds were nano-dispensed in cell plates (CCL2 assay) and in parallel, 11 points DR curves in duplicates were nano-dispensed for the viability assay. The plates were heat sealed and kept at RT until use.
(§2) MLE12 cells in flasks were washed once with PBS, detached with Trypsin/EDTA, resuspended in fresh medium and counted. Cells were diluted to 3×10^5 cells/ml and seeded with Multidrop Combi in cell plates pre-dispensed with compounds, 25 μl/well (7500 cells/well). The plates were placed, one by one, in a CO2-incubator at 37° C. for 1 hour after which 25 μl/well of TNF-α (final concentration 20 ng/ml) were added. The plates were transferred back to the CO2-incubator placed in a plastic box with wet tissue in the bottom, to avoid evaporation, for 30 hours.
After 24 hours culture, resazurin reagent (stock 1 mg/ml in PBS) diluted 1:17 in PBS was added with Multidrop Combi, 10 μl/well, and plates were incubated for 6 hours. Plates were read in Sense plate reader with resorufin protocol (ex544 nm/em595 nm). The results were imported to an excel template where the EC50 values were calculated using XLfit.

CCL2 = assay: Mouse CCL2 assay in MLE12 cells; type: cell-based
Description: Cisbio mouse CCL2 assay is intended for the quantitative measurement of CCL2 in supernatant using HTRF® technology. The assay is compatible with mouse samples, and is highly specific for CCL2. CCL2 is detected in a sandwich assay format using 2 different specific antibodies, one labeled with Cryptate (donor) and the second with d2 (acceptor). The detection principle is based on HTRF® technology. When the labelled antibodies bind to the same antigen, the excitation of the donor with a light source (laser or flash lamp) triggers a Fluorescence Resonance Energy Transfer (FRET) towards the acceptor, which in turn fluoresces at a specific wavelength (665 nm). The two antibodies bind to the CCL2 present in the sample, thereby generating FRET. Signal intensity is proportional to the number of antigen-antibody complexes formed and therefore to the CCL2 concentration. • Materials: • Cells: MLE12 (Mouse Lung Epithelial cells, SV40 transformed) • Medium: DMEM/F12 (Gibco #11330057), FBS 5% (Gibco #10500064), Pen/Strep 50 U/50 μg/ml (Gibco #15070063) • Cell plates: 384-well, black/clear, TC-treated (Corning #3764) • Source plate: Labcyte LDV 384 (Labcyte #LP-0200) • Compound dilution plate: V-bottom 384-well PP plate (Greiner #781280) • Compounds: 10 mM stocks in DMSO • HTRF plates: 384-well, white, half area, non-binding (Costar #3824) • Mouse CCL2 kit: Cisbio 62MCCL2PEH • Other reagents: Trypsin/EDTA 10× (Gibco #15400054), PBS (Gibco #14190169), Resazurin (Sigma-Aldrich #199303), 1 mg/ml in PBS, TNF-α 200 μg/ml in PBS (Peprotech #300-01A) • Instruments: • Echo liquid handler (Labcyte) • Multidrop Combi (Thermo Scientific) • Sense plate reader (Hidex) Compound Handling:
as §1, §2
After 30 hours incubation, the plates were spun down 5 minutes at 400 g, and 16 μl/well of the supernatants were transferred to the assay plate. A mCCL2 standard curve was prepared according to the kit protocol and 16 μl/well of the standards were also added to the assay plate.
The anti-CCL2 antibody mix was prepared according to the kit protocol, and 4 μl/well were added to the assay plate. The plate was sealed and incubated over night at RT. After incubation the plate was read in Sense plate reader with Time-resolved FRET protocol (Ex330 nm/Em 620 and 665 nm). After data reduction, the delta ratios were imported to an excel template where the IC50 values were calculated.

[1] = Mus musculus, MLE12, 30 h, MLE12 cells, TNF-α 20 ng/ml, supernatant after 30 hours, HTRF, read-out: CCL2 (EC50)
[2] = Mus musculus, MLE12, 30 h, read-out: CCL2 (EC50, nM)

OGG1, sequence (O15527 whole entry): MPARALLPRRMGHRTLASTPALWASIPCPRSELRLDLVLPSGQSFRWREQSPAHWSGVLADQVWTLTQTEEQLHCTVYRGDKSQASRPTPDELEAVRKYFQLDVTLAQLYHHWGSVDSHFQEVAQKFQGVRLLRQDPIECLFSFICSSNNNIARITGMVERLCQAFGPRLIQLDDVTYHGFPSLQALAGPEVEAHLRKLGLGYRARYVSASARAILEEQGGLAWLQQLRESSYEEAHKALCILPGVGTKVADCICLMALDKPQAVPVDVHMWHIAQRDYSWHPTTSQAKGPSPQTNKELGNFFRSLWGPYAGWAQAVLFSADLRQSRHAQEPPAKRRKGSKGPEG

IC50 (OGG1) [µM] | EC50 (CCL2; [1]) [nM] | EC50 (CCL2; MLE12 cells, TNF-α 20 ng/ml, supernatant after 30 hours, HTRF, read-out: CCL2 (EC50)) [nM] | SMILES | IC50 (MLE12 cells; Mus musculus, MLE12, 24 h) [µM] | IC50 (MLE12 cells; Mus musculus) [µM] | EC50 (CCL2; [2]) [nM] | IC50 (MLE12 cells) [µM]
0.023 | 15600 | 16700 | COc1cc(NC(=O)[C@H]2CC[C@@H](n3c(=O)[nH]c4c(Br)cccc43)CC2)ccc1C [Example 107, (Cis)-4-(4-bromo-2-oxo-2,3-dihydro-1H-1,3-benzodiazol-1-yl)-N-(3-methoxy-4-methylphenyl)cyclohexane-1-carboxamide] | 7.41 |  |  | 7.4
1.36 | 65200 |  | COc1cc(NC(=O)N2CCC(n3c(=O)[nH]c4c(-n5cccn5)cccc43)CC2)ccc1C [Example 117, N-(3-methoxy-4-methylphenyl)-4-[2-oxo-4-(1H-pyrazol-1-yl)-2,3-dihydro-1H-1,3-benzodiazol-1-yl]piperidine-1-carboxamide] | 14.4 |  |  | 
0.234 | 16700 |  | O=c1[nH]c2c(Br)cccc2n1[C@H]1CC[C@@H](C(=O)Nc2ccc(Cl)c(Cl)c2)CC1 [Example 118, (Cis)-4-(4-bromo-2-oxo-2,3-dihydro-1H-1,3-benzodiazol-1-yl)-N-(3,4-dichlorophenyl)cyclohexane-1-carboxamide] | 5.39 |  |  | 
0.072 | 17700 |  | O=c1[nH]c2c(Br)cccc2n1[C@H]1CC[C@@H](C(=O)Nc2ccc(Cl)cc2)CC1 [Example 119, (Cis)-4-(4-bromo-2-oxo-2,3-dihydro-1H-1,3-benzodiazol-1-yl)-N-(4-chlorophenyl)cyclohexane-1-carboxamide] | 5.07 |  |  | 
0.071 | 14100 |  | COc1cc(NC(=O)[C@H]2CC[C@@H](n3c(=O)[nH]c4c(Br)cccc43)CC2)ccc1Cl [Example 122, (Cis)-4-(4-bromo-2-oxo-2,3-dihydro-1H-1,3-benzodiazol-1-yl)-N-(4-chloro-3-methoxyphenyl)cyclohexane-1-carboxamide] | 4.5 |  |  | 
0.026 | 24200 |  | COc1ccc(NC(=O)[C@H]2CC[C@@H](n3c(=O)[nH]c4c(Br)cccc43)CC2)cc1Cl [Example 123, (Cis)-4-(4-bromo-2-oxo-2,3-dihydro-1H-1,3-benzodiazol-1-yl)-N-(3-chloro-4-methoxyphenyl)cyclohexane-1-carboxamide] | 10 |  |  | 
0.012 | 26500 |  | COc1ccc(NC(=O)[C@H]2CC[C@@H](n3c(=O)[nH]c4c(Br)cccc43)CC2)cc1C [Example 126, (Cis)-4-(4-bromo-2-oxo-2,3-dihydro-1H-1,3-benzodiazol-1-yl)-N-(4-methoxy-3-methylphenyl)cyclohexane-1-carboxamide] | 15.7 |  |  | 

Further lines, the molecule ahead of its results:

SMILES | IC50 (OGG1) [µM] | EC50 (CCL2; [1]) [nM] | EC50 (CCL2; MLE12 cells, TNF-α 20 ng/ml, supernatant after 30 hours, HTRF, read-out: CCL2 (EC50)) [nM] | IC50 (MLE12 cells; Mus musculus, MLE12, 24 h) [µM] | IC50 (MLE12 cells; Mus musculus) [µM] | EC50 (CCL2; [2]) [nM] | IC50 (MLE12 cells) [µM]
COc1cc(NC(=O)N2CCC(n3c(=O)[nH]c4c(-c5ccc(CO)nc5)cccc43)CC2)ccc1Cl [Example 83, N-(4-Chloro-3-methoxyphenyl)-4-{4-[6-(hydroxymethyl)pyridin-3-yl]-2-oxo-2,3-dihydro-1H-1,3-benzodiazol-1-yl}piperidine-1-carboxamide] | 0.958 | 34700 |  | 14 |  |  | 
Cc1cc(NC(=O)N2C3CCC2CC(n2c(=O)[nH]c4c(Br)cccc42)C3)ccc1I (stereo not drawn) [Example 84, 3-(4-Bromo-2-oxo-2,3-dihydro-1H-1,3-benzodiazol-1-yl)-N-(4-iodo-3-methylphenyl)-(endo)-8-azabicyclo[3.2.1]octane-8-carboxamide] | 0.03 |  |  |  | 8.14 | 23900 | 
COc1cc(NC(=O)N2C3CCC2CC(n2c(=O)[nH]c4c(Br)cccc42)C3)ccc1C (stereo not drawn) [Example 85, 3-(4-Bromo-2-oxo-2,3-dihydro-1H-1,3-benzodiazol-1-yl)-N-(3-methoxy-4-methylphenyl)-(endo)-8-azabicyclo[3.2.1]octane-8-carboxamide] | 0.033 |  |  |  | 17.2 | 39200 | 
O=C(Nc1ccc(Cl)c(F)c1)N1C2CCC1CC(n1c(=O)[nH]c3c(Br)cccc31)C2 (stereo not drawn) [Example 86, 3-(4-Bromo-2-oxo-2,3-dihydro-1H-1,3-benzodiazol-1-yl)-N-(4-chloro-3-fluorophenyl)-(endo)-8-azabicyclo[3.2.1]octane-8-carboxamide] | 0.059 |  |  |  | 13.7 | 19400 | 
CCNC(=O)c1cnn(-c2cccc3c2[nH]c(=O)n3C2CCN(C(=O)Nc3ccc(I)cc3)CC2)c1 [Example 87, 4-{4-[4-(Ethylcarbamoyl)-1H-pyrazol-1-yl]-2-oxo-2,3-dihydro-1H-1,3-benzodiazol-1-yl}-N-(4-iodophenyl)piperidine-1-carboxamide] | 0.471 | 6480 |  | 5.25 |  |  | 
CN(C)CCNC(=O)c1cnn(-c2cccc3c2[nH]c(=O)n3C2CCN(C(=O)Nc3ccc(I)cc3)CC2)c1 [Example 89, 4-(4-(4-((2-(Dimethylamino)ethyl)carbamoyl)-1H-pyrazol-1-yl)-2-oxo-2,3-dihydro-1H-benzo[d]imidazol-1-yl)-N-(4-iodophenyl)piperidine-1-carboxamide 2,2,2-trifluoroacetate] | 0.09 | 47100 |  | 25.1 |  |  | 
Cc1cc(NC(=O)N2C3CCC2CC(n2c(=O)[nH]c4c(-c5ccc(CO)nc5)cccc42)C3)ccc1I (stereo not drawn) [Example 91, 3-{4-[6-(Hydroxymethyl)pyridin-3-yl]-2-oxo-2,3-dihydro-1H-1,3-benzodiazol-1-yl}-N-(4-iodo-3-methylphenyl)-(endo)-8-azabicyclo[3.2.1]octane-8-carboxamide] | 0.058 | 12600 |  | 6.45 |  |  | 
COc1cc(NC(=O)N2C3CCC2CC(n2c(=O)[nH]c4c(-c5ccc(CO)nc5)cccc42)C3)ccc1C (stereo not drawn) [Example 92, 3-{4-[6-(Hydroxymethyl)pyridin-3-yl]-2-oxo-2,3-dihydro-1H-1,3-benzodiazol-1-yl}-N-(3-methoxy-4-methylphenyl)-(endo)-8-azabicyclo[3.2.1]octane-8-carboxamide] | 0.084 | 38800 |  | 13.7 |  |  | 
COc1cc(NC(=O)N2C3CCC2CC(n2c(=O)[nH]c4c(-c5ccc(CO)nc5)cccc42)C3)ccc1Cl (stereo not drawn) [Example 93, N-(4-chloro-3-methoxyphenyl)-3-{4-[6-(hydroxymethyl)pyridin-3-yl]-2-oxo-2,3-dihydro-1H-1,3-benzodiazol-1-yl}-(endo)-8-azabicyclo[3.2.1]octane-8-carboxamide] | 0.091 | 34900 |  | 21.3 |  |  | 
O=C(Nc1ccc(Cl)c(F)c1)N1C2CCC1CC(n1c(=O)[nH]c3c(-c4ccc(CO)nc4)cccc31)C2 (stereo not drawn) [Example 94, N-(4-chloro-3-fluorophenyl)-3-{4-[6-(hydroxymethyl)pyridin-3-yl]-2-oxo-2,3-dihydro-1H-1,3-benzodiazol-1-yl}-(endo)-8-azabicyclo[3.2.1]octane-8-carboxamide] | 0.105 | 20200 |  | 8.45 |  |  | 
